From ChEMBL document CHEMBL3217516, “Library synthesis and cytotoxicity of a family of 2-phenylacrylonitriles and discovery of an estrogen dependent breast cancer lead compound” (Medchemcomm, 2011)

Assays:
[1] = test system: HT-29; assay: Cytotoxicity against human HT-29 cells after 72 hrs by MTT assay; format: functional; conditions: HT-29, 72 h
[2] = test system: SW480; assay: Cytotoxicity against human SW480 cells after 72 hrs by MTT assay; format: functional; conditions: SW480, 72 h
[3] = test system: MCF7; assay: Cytotoxicity against human MCF7 cells after 72 hrs by MTT assay; format: functional; conditions: MCF7, 72 h
[4] = test system: A2780; assay: Cytotoxicity against human A2780 cells after 72 hrs by MTT assay; format: functional; conditions: A2780, 72 h
[5] = Cytotoxicity against human H460 cells after 72 hrs by MTT assay; format: functional; conditions: NCI-H460, 72 h
[6] = test system: A-431; assay: Cytotoxicity against human A431 cells after 72 hrs by MTT assay; format: functional; conditions: A-431, 72 h
[7] = test system: DU-145; assay: Cytotoxicity against human DU145 cells after 72 hrs by MTT assay; format: functional; conditions: DU-145, 72 h
[8] = Cytotoxicity against human BE(2)-C cells after 72 hrs by MTT assay; format: functional
[9] = Cytotoxicity against human SJ-G2 cells after 72 hrs by MTT assay; format: functional; conditions: SJ-G2, 72 h
[10] = Cytotoxicity against human MIA cells after 72 hrs by MTT assay; format: functional
[11] = Cytotoxicity against human MCF10A cells after 72 hrs by MTT assay; format: cell-based, MCF-10A
[12] = Cytotoxicity against human MDA-MB-231 cells after 72 hrs by MTT assay; format: cell-based
[13] = test system: MCF7; assay: Selectivity ratio of GI50 for human MDA-MB-231 cells to GI50 for human MCF7 cells; format: functional
[14] = Selectivity ratio of GI50 for human MCF10A cells to GI50 for human MCF7 cells; format: ADME, cell-based, MCF-10A; conditions: MCF10A cells and MCF7 cells, read-out: RatioGI50
[15] = test system: HT-29; assay: Cytotoxicity against human HT-29 cells at 100 uM after 72 hrs by MTT assay; format: functional; conditions: HT-29, 72 h, read-out: GI
[16] = test system: SW480; assay: Cytotoxicity against human SW480 cells at 100 uM after 72 hrs by MTT assay; format: functional; conditions: SW480, 72 h, read-out: GI
[17] = test system: MCF7; assay: Cytotoxicity against human MCF7 cells at 100 uM after 72 hrs by MTT assay; format: functional; conditions: MCF7, 72 h, read-out: GI
[18] = test system: A2780; assay: Cytotoxicity against human A2780 cells at 100 uM after 72 hrs by MTT assay; format: functional; conditions: A2780, 72 h, read-out: GI
[19] = Cytotoxicity against human H460 cells at 100 uM after 72 hrs by MTT assay; format: functional; conditions: NCI-H460, 72 h, read-out: GI
[20] = test system: A-431; assay: Cytotoxicity against human A431 cells at 100 uM after 72 hrs by MTT assay; format: functional; conditions: A-431, 72 h, read-out: GI
[21] = test system: DU-145; assay: Cytotoxicity against human DU145 cells at 100 uM after 72 hrs by MTT assay; format: functional; conditions: DU-145, 72 h, read-out: GI
[22] = Cytotoxicity against human BE(2)-C cells at 100 uM after 72 hrs by MTT assay; format: functional; conditions: read-out: GI
[23] = Cytotoxicity against human SJ-G2 cells at 100 uM after 72 hrs by MTT assay; format: functional; conditions: SJ-G2, 72 h, read-out: GI
[24] = Cytotoxicity against human MIA cells at 100 uM after 72 hrs by MTT assay; format: functional; conditions: read-out: GI
[25] = test system: HT-29; assay: Selectivity ratio of GI50 for human H460 cells to GI50 for human HT29 cells; format: functional
[26] = test system: SW480; assay: Selectivity ratio of GI50 for human H460 cells to GI50 for human SW480 cells; format: functional
[27] = test system: A2780; assay: Selectivity ratio of GI50 for human H460 cells to GI50 for human A2780 cells; format: functional
[28] = Selectivity ratio of GI50 for human H460 cells to GI50 for human A431 cells; format: functional
[29] = test system: DU-145; assay: Selectivity ratio of GI50 for human H460 cells to GI50 for human DU145 cells; format: functional
[30] = Selectivity ratio of GI50 for human H460 cells to GI50 for human BE(2)-C cells; format: functional
[31] = Selectivity ratio of GI50 for human H460 cells to GI50 for human SJ-G2 cells; format: functional
[32] = Selectivity ratio of GI50 for human H460 cells to GI50 for human MIA cells; format: functional
[33] = test system: DU-145; assay: Selectivity ratio of GI50 for human DU145 cells to GI50 for human HT29 cells; format: functional
[34] = test system: SW480; assay: Selectivity ratio of GI50 for human DU145 cells to GI50 for human SW480 cells; format: functional
[35] = test system: A2780; assay: Selectivity ratio of GI50 for human DU145 cells to GI50 for human A2780 cells; format: functional
[36] = test system: DU-145; assay: Selectivity ratio of GI50 for human DU145 cells to GI50 for human H460 cells; format: functional
[37] = test system: DU-145; assay: Selectivity ratio of GI50 for human DU145 cells to GI50 for human A431 cells; format: functional
[38] = test system: DU-145; assay: Selectivity ratio of GI50 for human DU145 cells to GI50 for human BE(2)-C cells; format: functional
[39] = test system: DU-145; assay: Selectivity ratio of GI50 for human DU145 cells to GI50 for human SJ-G2 cells; format: functional
[40] = test system: DU-145; assay: Selectivity ratio of GI50 for human DU145 cells to GI50 for human MIA cells; format: functional
[41] = test system: MCF7; assay: Selectivity ratio of GI50 for human HT29 cells to GI50 for human MCF7 cells; format: functional
[42] = test system: MCF7; assay: Selectivity ratio of GI50 for human SW480 cells to GI50 for human MCF7 cells; format: functional
[43] = test system: A2780; assay: Selectivity ratio of GI50 for human A2780 cells to GI50 for human MCF7 cells; format: functional
[44] = test system: MCF7; assay: Selectivity ratio of GI50 for human H460 cells to GI50 for human MCF7 cells; format: functional
[45] = test system: MCF7; assay: Selectivity ratio of GI50 for human A431 cells to GI50 for human MCF7 cells; format: functional
[46] = test system: DU-145; assay: Selectivity ratio of GI50 for human DU145 cells to GI50 for human MCF7 cells; format: functional
[47] = test system: MCF7; assay: Selectivity ratio of GI50 for human BE(2)-C cells to GI50 for human MCF7 cells; format: functional
[48] = test system: MCF7; assay: Selectivity ratio of GI50 for human SJ-G2 cells to GI50 for human MCF7 cells; format: functional
[49] = test system: MCF7; assay: Selectivity ratio of GI50 for human MIA cells to GI50 for human MCF7 cells; format: functional

Structure (SMILES)	GI50 [1]	GI50 [2]	GI50 [3]	GI50 [4]	GI50 [5]	GI50 [6]	GI50 [7]	GI50 [8]	GI50 [9]	GI50 [10]	inhibition of growth at 100 µM [15]	inhibition of growth at 100 µM [16]	inhibition of growth at 100 µM [17]	inhibition of growth at 100 µM [18]	inhibition of growth at 100 µM [19]	inhibition of growth at 100 µM [20]	inhibition of growth at 100 µM [21]	inhibition of growth at 100 µM [22]	inhibition of growth at 100 µM [23]	inhibition of growth at 100 µM [24]	also measured
N#C/C(=C\c1ccc[nH]1)c1ccc(Cl)c(Cl)c1	15 µM	23 µM	0.56 µM	16 µM	5.7 µM	3.2 µM	41 µM	25 µM	20 µM	46 µM	–	–	–	–	–	–	–	–	–	–	GI50 at 72 h [11]: 28 µM; GI50 at 72 h [12]: 46 µM; RatioGI50 [13]: 268; selectivity ratio [14]: 126
CCCCCCCCC/C=C(\C#N)c1ccc(Cl)c(Cl)c1	–	–	–	–	–	–	–	–	–	–	53%	68%	49%	24%	100%	88%	87%	73%	70%	22%	–
N#CC(Cc1ccc[nH]1)c1ccccc1 (centres undefined)	–	–	–	–	–	–	–	–	–	–	39%	40%	47%	76%	15%	20%	7%	43%	27%	30%	–
N#C/C(=C\c1ccccc1)c1ccc(Cl)c(Cl)c1	–	–	–	–	–	–	–	–	–	–	56%	67%	79%	62%	36%	71%	36%	47%	72%	61%	–
N#CC(Cc1ccc[nH]1)c1ccc(Cl)c(Cl)c1 (centres undefined)	–	–	–	–	–	–	–	–	–	–	51%	34%	84%	63%	55%	44%	24%	42%	33%	20%	–
N#C/C(=C\c1cccc(Cl)c1)c1ccc(Cl)c(Cl)c1	8.4 µM	8.9 µM	7.2 µM	11 µM	40 µM	16 µM	55 µM	12 µM	12 µM	15 µM	–	–	–	–	–	–	–	–	–	–	RatioGI50 [25]: 5; RatioGI50 [26]: 5; RatioGI50 [27]: 5; RatioGI50 [28]: 5; RatioGI50 [29]: 5; RatioGI50 [30]: 5; RatioGI50 [31]: 5; RatioGI50 [32]: 5; RatioGI50 [33]: 5; RatioGI50 [34]: 5; RatioGI50 [35]: 5; RatioGI50 [36]: 5; RatioGI50 [37]: 5; RatioGI50 [38]: 5; RatioGI50 [39]: 5; RatioGI50 [40]: 5
N#C/C(=C\c1ccc([N+](=O)[O-])cc1)c1ccc(Cl)c(Cl)c1	–	–	–	–	–	–	–	–	–	27 µM	–	–	–	–	–	–	–	–	–	–	GI50 at 72 h [11]: 16 µM; GI50 at 72 h [12]: 34 µM; RatioGI50 [13]: 268; selectivity ratio [14]: 126; RatioGI50 [41]: 25; RatioGI50 [42]: 543; RatioGI50 [43]: 543; RatioGI50 [44]: 543; RatioGI50 [45]: 543; RatioGI50 [46]: 543; RatioGI50 [47]: 543; RatioGI50 [48]: 543; RatioGI50 [49]: 543
N#C/C(=C/c1ccc([N+](=O)[O-])cc1)C(=O)c1ccc[nH]1	< 10 µM	< 10 µM	19 µM	19 µM	< 10 µM	< 10 µM	< 10 µM	19 µM	< 10 µM	< 10 µM	–	–	–	–	–	–	–	–	–	–	–
